Structures are written as SMILES. Where two headings read alike, the source gives them in different places. Bounds are passed on as bounds.

The melting point is the temperature of the solid-liquid transition.

The test system of one series is Plasmopara viticola. The note with it: read-out: inhibit fungal infestation.
Series [1] relates to Phytophthora. The experiment in a line: whole plant or invertebrate. Format: in vivo. The settings on record: in Solanum lycopersicum, read-out: inhibit fungal infestation.
Series [2] relates to Phytophthora. The experiment in a line: whole plant or invertebrate. The format is in vivo. The note with it: in Solanum tuberosum, read-out: inhibit fungal infestation.

Experimental for Plasmopara viticola: D-1: Action Against Plasmopara viticola (downy mildew) on Vines
5 week old grape seedlings cv. Gutedel are treated with the formulated test compound in a spray chamber. One day after application grape plants are inoculated by spraying a sporangia suspension (4×10^4 sporangia/ml) on the lower leaf side of the test plants. After an incubation period of 6 days at +21° C. and 95% r. h. in a greenhouse the disease incidence is assessed.

Consider `CCS(=O)(=O)N[C@H](C(=O)NCc1ccc(OCC#Cc2ccc(Cl)cc2)c(OC)c1)C(C)C` [Compound A1.1, (S)-N-{4-[3-(4-Chloro-phenyl)-prop-2-ynyloxy]-3-methoxy-benzyl}-2-ethanesulfonylamino-3-methyl-butyramide], for which the melting point lay within 162 to 163 °C. In addition, the inhibition at 200 ppm in the series with Plasmopara viticola was at least 80%. Also, the inhibition at 200 ppm with Phytophthora [1] is at least 80%. The inhibition at 200 ppm with Phytophthora [2] was at least 80%.

Turning to `CCS(=O)(=O)N[C@H](C(=O)NCc1ccc(OCc2ccccc2)c(OC)c1)C(C)C`, the melting point is 141 to 152 °C.

On to `CCS(=O)(=O)N[C@H](C(=O)NCc1ccc(O)c(OC)c1)C(C)C`, for which the melting point fell in the range of 49 to 50 °C.

These data come from patent publication US20030224940A1, “Alpha-sulfin-and alpha-sulfonamino acid amide derivatives” (priority 2000, published 2003).
